Columns and labels:
[1] = system: hypoxic rat; assay: Passive avoidance test in hypoxic rat, Experiment 3A; assay type: in vivo; conditions: hypoxic rats
Protocol: Wistar male rats, 15-19 month-old, were exposed to a single hypoxic episode as described above. […] The passive avoidance test was performed on day 13 after initiation the drug treatment. The apparatus consisted of a lit chamber that can be separated from a dark chamber by a sliding door. At training, a rat is placed in the lit chamber for 30 seconds, then the door is opened. The rat moves to the dark chamber after a short delay—the latency, that is recorded. Upon entry into the dark chamber, the door is shut closed and a 0.3-mA footshock is delivered for 3 seconds by a Grass S-88 stimulator. Retention of the experience is determined after 48 hours by repeating the test and recording the latency to an arbitrary maximum of 300 seconds. Longer latencies are ascribed to retention of memory and improved cognition.

[2] = system: hypoxic rat; assay: α-MpT-induced hypokinesia in hypoxic rat, Experiment 1A; assay type: in vivo; conditions: for Locomotor activity after α-MpT treatment, recorded as total movements / Locomotor activity after αMpT treatment, recorded as big movements: hypoxic rats, 0.5 mg/kg/day by gavage 70-80 days; for Locomotor activity after αMpT treatment, recorded as big movements: Mean ± SEM
Protocol: (§1) Wistar male rats, 15-19 month-old, were exposed to a single hypoxic episode which is assumed to decrease the level of dopamine in the brain. […] The drugs were administered by gavage, using a special syringe equipped with rounded tip that could be directed into the stomach. The dose was contained in 0.3-0.5 mL of distilled water. The rats were pretreated for 70-80 days with daily doses of the test drugs and received intra-peritoneal (i.p.) α-MpT (α-methyl-p-tyrosine) at a dose of 100 mg/kg in 0.3-0.5 mL saline. Controls received saline. α-MpT is assumed to inhibit the formation of L-Dopa from tyrosine and, consequently the formation of dopamine itself. Lack of central dopamine is expressed as hypokinesia. Following the injection of α-MpT, motor activity was recorded for the duration of 10 hours. Locomotion scores were taken in seven fully-computerized cages (26×25 cm) having a grid of infra-red beams at 4 cm-intervals.
(§2) Crossing of a beam initiated an electric signal which was fed into a computer. The number of crossings over a given period provided a measure of locomotion.
(§3) The records gave two data categories: (a) “small movements” originating in stationary activities such as grooming and scratching and (b) “big movements” originating in ambulation and recorded as the simultaneous crossing of more than two beams. “Total movements” include both categories.
(§4) Counts of motor activity in the presence of α-MpT were related as percent with respect to counts in its absence in the corresponding control group (unlesioned or hypoxia-lesioned). Motor activity counts of drug-treated rats were related to the hypoxia saline-treated as 100%. All behavioral tests were performed 90-120 min. after administration of the last dose of the test compound.

[3] = system: hypoxic rat; assay: Amphetamine-induced stereotype behavior in hypoxic rat, Experiment 2A; assay type: in vivo; conditions: hypoxic group, with respect to hypoxia and amphetamine control
Protocol: Wistar male rats, 15-19 month-old, were exposed to a single hypoxic episode as described above. […] Rats pretreated for 29 days with daily doses of the test drugs (0.5 mg/kg), received a sub-cutaneous (s.c.) injection of D-amphetamine sulfate at a dose of 0.5 mg/kg. D-amphetamine is known to cause an enhancement of the effects of CNS dopamine by a mechanism involving dopamine release, and blockage of its uptake and its metabolism by MAO. The behavioral manifestation of amphetamine action is a stereotypic pattern of lateral head movements. Counts of lateral head movements were taken over two successive intervals of 1 min each, 45-60 min after the injection of amphetamine and then averaged.

[4] = system: hypoxia-lesioned rats; assay: Water maze working memory test, Experiment 3B; assay type: in vivo, rat; conditions: hypoxia-lesioned rats; 0.5 mg/kg/day 60 days; ± SEM
Excerpt: The apparatus used consists of a circular water tank 160 cm in diameter filled with water to a depth of 38 cm. The water was made cloudy by the addition of milk powder. A clear Plexiglass 15 cm platform, supported by a movable stand rest on the bottom of the tank was submerged to a depth of 2 cm from the water surface. Normally a swimming rat cannot perceive the location of the platform but it may recall it from a previous experience and training, unless it suffers from some memory impairment. The time taken to locate the platform is measured in seconds and referred to as the latency. During the experiment all orientational cues such as ceiling lights etc. remained unchanged. Longer latencies are observed with rats with some impairment to their memory.
Each rat was given two trails a day for four days, entering the pool from the same point of entry each day. The position of the platform was changed daily to one of four predetermined positions. Each rat was tested twice each day over the four days, referred to as runs 1 and 2 on sessions I-IV. Initially the rat was placed on the platform for 60 seconds. It was then removed and placed at the point of entry and allowed a maximum of 120 seconds to locate the platform (run 1). The second run for that day followed 60 seconds later (run 2). In the second run the rat is expected to find the platform much sooner, having benefitted from its earlier experience. […] The average latency of run 1 in four sessions on four different days was then related to the corresponding parameter of run 2. The smaller the ratio of […], the better the short range learning score.
Table 8. […] The data are the latencies in seconds±SEM that it took a given group to locate a submerged and invisible platform the location of which was shifted from one session to the other. The time interval between sessions was one day, and that between successive runs was 60 seconds. (n=7-8 rats per group)

[5] = system: hypoxic rat; assay: α-MpT-induced hypokinesia in hypoxic rat, Experiment 1B; assay type: in vivo; conditions: hypoxic rats, 0.3 mg/Kg daily i.p. 21 days; for Locomotor activity after α-MpT treatment, recorded as big movements: Mean ± SEM
Protocol: as §1, §2, §3, §4
The procedure of Experiment 1A was repeated with the following changes:
(1) Animal: 11-14 month-old rats.
The drugs were given i.p.
(3) Duration of the treatment: 21 days.
(4) Dose of α-MpT: 70 mg/Kg.

Structure (SMILES): C#CCN(C)[C@H](C)Cc1ccccc1 [deprenyl]
- passive avoidance performance, in words [1]: showed no improvement
- Locomotor activity after α-MpT treatment, recorded as total movements ([2]; hour 1 after α-MpT): 88 ± 23%
- Locomotor activity after αMpT treatment, recorded as big movements ([2]; hour 1 after α-MpT): 61 ± 15%
- Locomotor activity after α-MpT treatment, recorded as total movements ([2]; hour 2 after α-MpT): 131 ± 30%
- Locomotor activity after αMpT treatment, recorded as big movements ([2]; hour 2 after α-MpT): 103 ± 22%
- Locomotor activity after α-MpT treatment, recorded as total movements ([2]; hour 3 after α-MpT): 141 ± 26%
- Locomotor activity after αMpT treatment, recorded as big movements ([2]; hour 3 after α-MpT): 184 ± 39%
- Locomotor activity after α-MpT treatment, recorded as total movements ([2]; hour 4 after α-MpT): 191 ± 45%
- Locomotor activity after αMpT treatment, recorded as big movements ([2]; hour 4 after α-MpT): 85 ± 34%
- Locomotor activity after α-MpT treatment, recorded as total movements ([2]; hour 5 after α-MpT): 229 ± 40%
- Locomotor activity after αMpT treatment, recorded as big movements ([2]; hour 5 after α-MpT): 171 ± 61%
- Locomotor activity after αMpT treatment, recorded as big movements ([2]; hour 6 after α-MpT): 65 ± 17%
- Locomotor activity after α-MpT treatment, recorded as total movements ([2]; hour 7 after α-MpT): 204 ± 7%
- Locomotor activity after αMpT treatment, recorded as big movements ([2]; hour 7 after α-MpT): 96 ± 29%
- Locomotor activity after α-MpT treatment, recorded as total movements ([2]; hour 8 after α-MpT): 131 ± 23%
- Locomotor activity after αMpT treatment, recorded as big movements ([2]; hour 8 after α-MpT): 91 ± 40%
- Locomotor activity after α-MpT treatment, recorded as total movements ([2]; hour 9 after α-MpT): 137 ± 21%
- Locomotor activity after αMpT treatment, recorded as big movements ([2]; hour 9 after α-MpT): 84 ± 23%
- Locomotor activity after α-MpT treatment, recorded as total movements ([2]; hour 10 after α-MpT): 116 ± 22%
- Locomotor activity after αMpT treatment, recorded as big movements ([2]; hour 10 after α-MpT): 29 ± 10%
- effect on hypokinetic syndrome, big movements, in words ([2]; hypoxia group, ten hour observation): less effective
- level of activity (total movements) versus corresponding control group, in words ([2]; hypoxic rats pretreated): much higher
- potentiation of stereotypic behavior induced by amphetamine, in words [3]: did not potentiate
- latency to locate platform, Session I Run 1 [4]: 42 ± 16 s
- latency to locate platform, Session I Run 2 [4]: 40 ± 17 s
- latency to locate platform, Session II Run 1 [4]: 42 ± 18 s
- latency to locate platform, Session II Run 2 [4]: 35 ± 16 s
- latency to locate platform, Session III Run 1 [4]: 32 ± 15 s
- latency to locate platform, Session III Run 2 [4]: 8 ± 2 s
- latency to locate platform, Session IV Run 1 [4]: 19 ± 6 s
- latency to locate platform, Session IV Run 2 [4]: 12 ± 4 s
- Locomotor activity after α-MpT treatment, recorded as total movements ([5]; hour 1 after α-MpT 70 mg/Kg): 68 ± 9%
- Locomotor activity after α-MpT treatment, recorded as big movements ([5]; hour 1 after α-MpT 70 mg/Kg): 70 ± 10%
- Locomotor activity after α-MpT treatment, recorded as total movements ([5]; hour 2 after α-MpT 70 mg/Kg): 95 ± 11%
- Locomotor activity after α-MpT treatment, recorded as big movements ([5]; hour 2 after α-MpT 70 mg/Kg): 91 ± 19%
- Locomotor activity after α-MpT treatment, recorded as total movements ([5]; hour 3 after α-MpT 70 mg/Kg): 126 ± 22%
- Locomotor activity after α-MpT treatment, recorded as big movements ([5]; hour 3 after α-MpT 70 mg/Kg): 85 ± 19%
- Locomotor activity after α-MpT treatment, recorded as total movements ([5]; hour 4 after α-MpT 70 mg/Kg): 118 ± 20%
- Locomotor activity after α-MpT treatment, recorded as big movements ([5]; hour 4 after α-MpT 70 mg/Kg): 88 ± 23%
- Locomotor activity after α-MpT treatment, recorded as total movements ([5]; hour 5 after α-MpT 70 mg/Kg): 83 ± 24%
- Locomotor activity after α-MpT treatment, recorded as big movements ([5]; hour 5 after α-MpT 70 mg/Kg): 87 ± 11%
- Locomotor activity after α-MpT treatment, recorded as total movements ([5]; hour 6 after α-MpT 70 mg/Kg): 78 ± 9%
- Locomotor activity after α-MpT treatment, recorded as big movements ([5]; hour 6 after α-MpT 70 mg/Kg): 67 ± 8%
- Locomotor activity after α-MpT treatment, recorded as total movements ([5]; hour 7 after α-MpT 70 mg/Kg): 56 ± 7%
- Locomotor activity after α-MpT treatment, recorded as big movements ([5]; hour 7 after α-MpT 70 mg/Kg): 62 ± 9%
- Locomotor activity after α-MpT treatment, recorded as total movements ([5]; hour 8 after α-MpT 70 mg/Kg): 185 ± 13%
- Locomotor activity after α-MpT treatment, recorded as big movements ([5]; hour 8 after α-MpT 70 mg/Kg): 70 ± 9%
- Locomotor activity after α-MpT treatment, recorded as total movements ([5]; hour 9 after α-MpT 70 mg/Kg): 111 ± 12%
- Locomotor activity after α-MpT treatment, recorded as big movements ([5]; hour 9 after α-MpT 70 mg/Kg): 132 ± 24%
- Locomotor activity after α-MpT treatment, recorded as total movements ([5]; hour 10 after α-MpT 70 mg/Kg): 61 ± 12%
- Locomotor activity after α-MpT treatment, recorded as big movements ([5]; hour 10 after α-MpT 70 mg/Kg): 54 ± 13%

— US6528685B2 (Teva Pharmaceutical Industries, Ltd., priority 1994, dated 2003)
